# pIC50, pKd: −log10 of the molar value.
# Tests used:
# [1] = molecular target: T1, E3 ubiquitin-protein ligase CBL-B (Homo sapiens, UniProt Q13191); experiment: Inhibition of N-terminal Avi-tagged human CBL-B (36 to 427 residues) incubated with 60 nM Src kinase for 1.5 hrs followed by incubation with fluorescently labeled UbcH5B-Ub for 1 hr and measured by TR-FRET assay; format: single protein
# [2] = molecular target: T1, E3 ubiquitin-protein ligase CBL-B; experiment: Binding affinity towards N-terminal biotinylated Avi-tagged human CBL-B (36 to 427 residues) measured by surface plasmon resonance assay
# [3] = Induction of anti-CD3/CD28 antibodies-stimulated human T cell activation at 4 uM assessed fold increase in IL-2 secretion measured by ELISA assay; format: functional, T cell line
# [4] = Induction of anti-CD3/CD28 antibodies-stimulated human T cell activation at 1 uM assessed fold increase in IL-2 secretion measured by ELISA assay; format: functional, T cell line
# [5] = Induction of anti-CD3/CD28 antibodies-stimulated human T cell activation at 0.3 uM assessed fold increase in IL-2 secretion measured by ELISA assay; format: functional, T cell line
# [6] = Induction of anti-CD3 antibodies-stimulated human T cell activation at 8 uM assessed fold increase in IL-2 secretion measured by ELISA assay; format: functional, T cell line; further: reference of the scale not given here
# [7] = Induction of anti-CD3 antibodies-stimulated human T cell activation at 1 uM assessed fold increase in IL-2 secretion measured by ELISA assay; format: functional, T cell line; further: reference of the scale not given here
# [8] = Induction of anti-CD3/CD28 antibodies-stimulated human T cell activation at 4 uM assessed fold increase in CD25 expression measured by ELISA assay; format: functional, T cell line
# [9] = Induction of anti-CD3/CD28 antibodies-stimulated human T cell activation at 1 uM assessed fold increase in CD25 expression measured by ELISA assay; format: functional, T cell line
# [10] = Induction of anti-CD3/CD28 antibodies-stimulated human T cell activation at 0.3 uM assessed fold increase in CD25 expression measured by ELISA assay; format: functional, T cell line
# [11] = Induction of anti-CD3 antibodies-stimulated human T cell activation at 8 uM assessed fold increase in CD25 expression measured by ELISA assay; format: functional, T cell line; further: reference of the scale not given here
# [12] = Induction of anti-CD3 antibodies-stimulated human T cell activation at 1 uM assessed fold increase in CD25 expression measured by ELISA assay; format: functional, T cell line; further: reference of the scale not given here
# [13] = Induction of anti-CD3 antibodies-stimulated human CD4+ T cell activation in immunocompetent mouse assessed fold increase in CD25 expression at 90 mg/kg, po administered twice a day; format: functional; further: reference of the scale not given here
# [14] = Induction of anti-CD3 antibodies-stimulated human CD4+ T cell activation in immunocompetent mouse assessed fold increase in CD25 expression at 135 mg/kg, po administered twice a day; format: functional; further: reference of the scale not given here
# [15] = Induction of anti-CD3 antibodies-stimulated human CD4+ T cell activation in immunocompetent mouse assessed fold increase in CD25 expression at 180 mg/kg, po administered twice a day; format: functional; further: reference of the scale not given here
# [16] = Induction of anti-CD3 antibodies-stimulated human CD8+ T cell activation in immunocompetent mouse assessed fold increase in CD25 expression at 45 mg/kg, po administered twice a day; format: functional; further: reference of the scale not given here
# [17] = Induction of anti-CD3 antibodies-stimulated human CD8+ T cell activation in immunocompetent mouse assessed fold increase in CD25 expression at 90 mg/kg, ip administered thrice a day; format: functional; further: reference of the scale not given here
# [18] = Induction of anti-CD3 antibodies-stimulated human CD8+ T cell activation in immunocompetent mouse assessed fold increase in CD25 expression at 90 mg/kg, po administered twice a day; format: functional; further: reference of the scale not given here
# [19] = Induction of anti-CD3 antibodies-stimulated human CD8+ T cell activation in immunocompetent mouse assessed fold increase in CD25 expression at 135 mg/kg, po administered twice a day; format: functional; further: reference of the scale not given here
# [20] = Induction of anti-CD3 antibodies-stimulated human CD8+ T cell activation in immunocompetent mouse assessed fold increase in CD25 expression at 180 mg/kg, po administered twice a day; format: functional; further: reference of the scale not given here
# [21] = Induction of activation of human CD56+ CD3- NK cells co-cultured with human K562 cells in 5:1 ratio and assessed as increase in IFN-gamma secretion at 10 uM measured by ELISA assay; format: functional, Natural killer cell
# [22] = Induction of activation of human CD56+ CD3- NK cells co-cultured with human K562 cells in 5:1 ratio and assessed as increase in IFN-gamma secretion at 1 uM measured by ELISA assay; format: functional, Natural killer cell
# [23] = Induction of activation of human CD56+ CD3- NK cells co-cultured with human K562 cells in 1:1 ratio and assessed as increase in IFN-gamma secretion at 10 uM measured by ELISA assay; format: functional, Natural killer cell
# [24] = Induction of activation of human CD56+ CD3- NK cells co-cultured with human K562 cells in 1:1 ratio and assessed as increase in IFN-gamma secretion at 1 uM measured by ELISA assay; format: functional, Natural killer cell
# [25] = Induction of activation of human CD56+ CD3- NK cells co-cultured with human K562 cells in 5:1 ratio and assessed as increase in TNF-alpha secretion at 10 uM measured by ELISA assay; format: functional, Natural killer cell
# [26] = Induction of activation of human CD56+ CD3- NK cells co-cultured with human K562 cells in 5:1 ratio and assessed as increase in TNF-alpha secretion at 1 uM measured by ELISA assay; format: functional, Natural killer cell
# [27] = Induction of activation of human CD56+ CD3- NK cells co-cultured with human K562 cells in 1:1 ratio and assessed as increase in TNF-alpha secretion at 10 uM measured by ELISA assay; format: functional, Natural killer cell
# [28] = Induction of activation of human CD56+ CD3- NK cells co-cultured with human K562 cells in 1:1 ratio and assessed as increase in TNF-alpha secretion at 1 uM measured by ELISA assay; format: functional, Natural killer cell
# [29] = Induction of activation of human CD56+ CD3- NK cells co-cultured with human K562 cells in 5:1 ratio and assessed as increase in MIP1beta secretion at 10 uM measured by ELISA assay; format: functional, Natural killer cell
# [30] = Induction of activation of human CD56+ CD3- NK cells co-cultured with human K562 cells in 5:1 ratio and assessed as increase in MIP1beta secretion at 1 uM measured by ELISA assay; format: functional, Natural killer cell
# [31] = Induction of activation of human CD56+ CD3- NK cells co-cultured with human K562 cells in 1:1 ratio and assessed as increase in MIP1beta secretion at 10 uM measured by ELISA assay; format: functional, Natural killer cell
# [32] = Induction of activation of human CD56+ CD3- NK cells co-cultured with human K562 cells in 1:1 ratio and assessed as increase in MIP1beta secretion at 1 uM measured by ELISA assay; format: functional, Natural killer cell
# [33] = Induction of anti-CD3 antibodies-stimulated human CD4+ T cell activation in immunocompetent mouse assessed fold increase in CD25 expression at 90 mg/kg, ip administered twice a day; format: functional; further: reference of the scale not given here
# [34] = Induction of allogenic human T cell activation at 10 uM assessed fold increase in cell proliferation; format: functional, T cell line
# [35] = Induction of allogenic human T cell activation at 3 uM assessed fold increase in cell proliferation; format: functional, T cell line
# [36] = Induction of anti-CD3 antibodies-stimulated human exhausted T cell activation assessed fold increase in IFN-gamma secretion measured by ELISA assay; format: functional, T cell line; further: reference of the scale not given here
# [37] = Induction of anti-CD3 antibodies-stimulated human exhausted T cell activation assessed fold increase in IL-2 secretion measured by ELISA assay; format: functional, T cell line; further: reference of the scale not given here
# [38] = Induction of anti-CD3 antibodies-stimulated human exhausted T cell activation assessed fold increase in GM-CSF secretion measured by ELISA assay; format: functional, T cell line; further: reference of the scale not given here
# [39] = Induction of anti-CD3 antibodies-stimulated human exhausted CD4+ T cell activation assessed fold increase in CTLA4 expression measured by flow cytometry analysis; format: functional, T cell line; further: reference of the scale not given here
# [40] = Induction of anti-CD3 antibodies-stimulated human exhausted CD8+ T cell activation assessed fold increase in CTLA4 expression measured by flow cytometry analysis; format: functional, T cell line; further: reference of the scale not given here
# [41] = Induction of anti-CD3/CD28 antibodies-stimulated human anergic T cell activation at 10 uM assessed fold increase in IFN-gamma secretion measured by ELISA assay; format: functional, T cell line
# [42] = Induction of anti-CD3/CD28 antibodies-stimulated human anergic T cell activation at 1.11 uM assessed fold increase in IFN-gamma secretion measured by ELISA assay; format: functional, T cell line
# [43] = Induction of anti-CD3/CD28 antibodies-stimulated human anergic T cell activation at 0.37 uM assessed fold increase in IFN-gamma secretion measured by ELISA assay; format: functional, T cell line
# [44] = test system: B cell; experiment: Induction of anti-IgM-stimulated human CD20+ B cell activation at 10 to 1000 uM assessed as increase in CD69 expression measured as mean fluorescence intensity AUC by flow cytometry analysis; format: functional, cell-based; details: dose 10-1000 µM
# [45] = Induction of activation of human CD56+ CD3- NK cells co-cultured with human K562 cells in 1:1 ratio and assessed as increase in IFN-gamma secretion at 2.5 uM measured by ELISA assay; format: functional, Natural killer cell
# [46] = Induction of activation of human CD56+ CD3- NK cells co-cultured with human K562 cells in 1:1 ratio and assessed as increase in IFN-gamma secretion at 0.625 uM measured by ELISA assay; format: functional, Natural killer cell
# [47] = Induction of activation of human CD56+ CD3- NK cells co-cultured with human K562 cells in 1:1 ratio and assessed as increase in TNF-alpha secretion at 2.5 uM measured by ELISA assay; format: functional, Natural killer cell
# [48] = Induction of activation of human CD56+ CD3- NK cells co-cultured with human K562 cells in 1:1 ratio and assessed as increase in TNF-alpha secretion at 0.625 uM measured by ELISA assay; format: functional, Natural killer cell
# T1 sequence (Q13191 whole entry, the tested form may be a part): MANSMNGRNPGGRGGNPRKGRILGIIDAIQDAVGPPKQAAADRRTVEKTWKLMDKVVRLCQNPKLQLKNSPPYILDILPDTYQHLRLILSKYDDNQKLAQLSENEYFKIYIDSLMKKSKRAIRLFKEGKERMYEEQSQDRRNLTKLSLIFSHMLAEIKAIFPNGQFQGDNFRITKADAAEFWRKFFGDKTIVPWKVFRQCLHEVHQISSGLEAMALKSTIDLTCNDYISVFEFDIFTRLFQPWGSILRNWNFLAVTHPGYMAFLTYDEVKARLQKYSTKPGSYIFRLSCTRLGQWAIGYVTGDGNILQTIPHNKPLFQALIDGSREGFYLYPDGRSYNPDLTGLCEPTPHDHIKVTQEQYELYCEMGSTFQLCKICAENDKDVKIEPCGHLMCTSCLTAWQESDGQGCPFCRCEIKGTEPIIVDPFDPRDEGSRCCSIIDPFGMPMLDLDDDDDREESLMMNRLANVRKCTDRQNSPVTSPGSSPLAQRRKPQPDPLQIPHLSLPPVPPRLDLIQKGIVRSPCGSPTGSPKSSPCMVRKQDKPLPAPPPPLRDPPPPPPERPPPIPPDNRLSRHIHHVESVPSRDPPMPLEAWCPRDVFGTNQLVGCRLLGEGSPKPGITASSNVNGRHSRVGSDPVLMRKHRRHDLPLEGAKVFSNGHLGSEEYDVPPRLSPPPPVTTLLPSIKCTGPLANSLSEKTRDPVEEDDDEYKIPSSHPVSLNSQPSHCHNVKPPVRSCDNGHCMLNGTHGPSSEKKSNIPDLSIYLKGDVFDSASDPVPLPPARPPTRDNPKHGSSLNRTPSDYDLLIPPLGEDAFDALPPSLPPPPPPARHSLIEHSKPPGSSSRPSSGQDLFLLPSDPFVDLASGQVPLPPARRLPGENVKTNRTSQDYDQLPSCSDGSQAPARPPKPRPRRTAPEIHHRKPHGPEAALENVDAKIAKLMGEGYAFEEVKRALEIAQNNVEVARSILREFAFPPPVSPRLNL
SMILES,pIC50 [1],pKd [2],fold change (FC) [3],fold change (FC) [4],fold change (FC) [5],fold change (FC) [7],fold change (FC) [9],fold change (FC) [10],fold change (FC) [12],fold change (FC) [13],fold change (FC) [14],fold change (FC) [15],fold change (FC) [16],fold change (FC) [17],fold change (FC) [18],fold change (FC) [19],fold change (FC) [20],fold change (FC) [23],fold change (FC) [27],fold change (FC) [33],also measured
Cn1cnnc1C(F)(F)[C@](C)(F)c1cccc(N2Cc3c(cc(CN4CCC(F)(F)C4)cc3C(F)(F)F)C2=O)c1,> 7.00,> 7.00,>=7.5,2.51,1.01,0.101,1.01,1.01,0.801,1,1,1,1,<1,<1,<1,<1,>=5,2.01,,fold change (FC) [6]: >=0.201; fold change (FC) [8]: 1.31; fold change (FC) [11]: >=1.001; fold change (FC) [21]: >=5; fold change (FC) [22]: 1.01; fold change (FC) [24]: 1.01; fold change (FC) [25]: 2.01; fold change (FC) [26]: 1.01; fold change (FC) [28]: 1.01; fold change (FC) [29]: 2.01; fold change (FC) [30]: 1.01; fold change (FC) [31]: 2.01; fold change (FC) [32]: 1.01
Cn1cnnc1C(F)(F)[C@](C)(F)c1cccc(N2Cc3c(cc(CN4CC[C@H](F)C4)cc3C(F)(F)F)C2=O)c1,> 7.00,> 7.00,>=7.5,>=7.5,2.51,>=0.201,1.51,1.31,>=1.001,1,1,1.51,<1,<1,1,1,1,>=5,2.01,,fold change (FC) [6]: >=0.201; fold change (FC) [8]: 1.51; fold change (FC) [11]: >=1.001; fold change (FC) [21]: >=5; fold change (FC) [22]: >=5; fold change (FC) [24]: 2.01; fold change (FC) [25]: >=5; fold change (FC) [26]: 2.01; fold change (FC) [28]: 2.01; fold change (FC) [29]: 2.01; fold change (FC) [30]: 1.01; fold change (FC) [31]: 1.01; fold change (FC) [32]: <=1

# More lines, main results first:
pIC50 [1],pKd [2],SMILES,fold change (FC) [3],fold change (FC) [4],fold change (FC) [5],fold change (FC) [7],fold change (FC) [9],fold change (FC) [10],fold change (FC) [12],fold change (FC) [13],fold change (FC) [14],fold change (FC) [15],fold change (FC) [16],fold change (FC) [17],fold change (FC) [18],fold change (FC) [19],fold change (FC) [20],fold change (FC) [23],fold change (FC) [27],fold change (FC) [33],also measured
> 7.00,,"C[C@@H](c1cc2c(c(C(F)(F)F)c1)CN(c1cccc(C3([C@@H](F)c4nncn4C)COC3)c1)C2=O)N1CCC2(CC2)C1 (single isomer, unassigned)",,>=7.5,>=7.5,>=0.201,1.31,1.31,>=1.001,>2.5,,>2.5,1,1.51,,1.51,1.51,,,1.51,
> 7.00,,C[C@@H]1CN(Cc2cc3c(c(C(F)(F)F)c2)CN(c2cccc(C4(Cc5nncn5C)COC4)c2)C3=O)CCO1,,>=7.5,>=7.5,>=0.201,1.31,1.31,>=1.001,,1.51,,1,,1,,,,,1,
> 7.00,,Cn1cnnc1CC1(c2cccc(NC(=O)c3cc(CN4CCC5(CC5)C4)cc(C4CC4)n3)c2)COC1,,>=7.5,>=7.5,>=0.201,1.31,1.31,>=1.001,>2.5,,>2.5,1,1,,1,1.51,>=5,>=5,1.51,fold change (FC) [34]: >3; fold change (FC) [35]: >3; fold change (FC) [36]: >1.61; fold change (FC) [37]: 2.51; fold change (FC) [38]: >1.61; fold change (FC) [39]: >1.61; fold change (FC) [40]: >1.61; fold change (FC) [41]: >4.01; fold change (FC) [42]: >4.01; fold change (FC) [43]: >4.01; AUC [44]: > 1.51; fold change (FC) [45]: >=5; fold change (FC) [46]: 2.01; fold change (FC) [47]: 1.01; fold change (FC) [48]: >=5
